Measured values from publication PMC9084593 (Cell reports, 2022).

Tests used:
GlmU = GlmU (Streptococcus pneumoniae, UniProt Q04KU2); assay: DTNB colorimetric acetyltransferase assay, […] nm; format: biochemical; conditions: 0.4 mM GlcN-1-P, 1 mM acetyl CoA, 5 mM MgCl2, pH 7.5, 37°C
GlmM = target: T1, GlmM (Streptococcus pneumoniae, UniProt Q04JI8); assay: GlmU-coupled DTNB colorimetric mutase assay, […] nm; format: biochemical; conditions: 0.4 mM GlcN-6-P, 2 mM acetyl CoA, 5 mM MgCl2, pH 7.5, 37°C
T1 sequence (Q04JI8 1-450): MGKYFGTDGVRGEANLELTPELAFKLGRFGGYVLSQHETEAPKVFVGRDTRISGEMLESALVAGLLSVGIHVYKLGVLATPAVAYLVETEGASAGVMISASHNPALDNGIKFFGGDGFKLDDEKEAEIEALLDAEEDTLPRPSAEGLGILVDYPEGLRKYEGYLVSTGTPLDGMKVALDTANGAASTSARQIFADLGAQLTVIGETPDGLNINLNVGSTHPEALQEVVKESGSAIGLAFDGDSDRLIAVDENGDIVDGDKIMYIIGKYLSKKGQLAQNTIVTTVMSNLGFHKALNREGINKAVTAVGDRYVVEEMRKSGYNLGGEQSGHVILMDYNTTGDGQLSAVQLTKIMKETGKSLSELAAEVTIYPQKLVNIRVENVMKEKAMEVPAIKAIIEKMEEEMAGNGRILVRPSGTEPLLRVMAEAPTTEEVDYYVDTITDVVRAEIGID

GlmU, sequence (Q04KU2 whole entry): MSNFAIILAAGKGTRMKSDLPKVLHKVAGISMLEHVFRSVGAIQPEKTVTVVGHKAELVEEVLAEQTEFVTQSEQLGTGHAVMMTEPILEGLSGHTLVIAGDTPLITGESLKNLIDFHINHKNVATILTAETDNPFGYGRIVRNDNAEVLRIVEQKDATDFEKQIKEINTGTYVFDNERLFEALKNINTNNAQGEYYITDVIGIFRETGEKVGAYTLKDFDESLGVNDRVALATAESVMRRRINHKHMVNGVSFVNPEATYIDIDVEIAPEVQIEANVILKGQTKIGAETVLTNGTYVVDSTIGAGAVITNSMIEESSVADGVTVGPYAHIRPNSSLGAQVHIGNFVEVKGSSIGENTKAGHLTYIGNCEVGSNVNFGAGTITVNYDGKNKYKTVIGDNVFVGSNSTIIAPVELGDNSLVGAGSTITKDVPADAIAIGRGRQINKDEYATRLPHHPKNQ

Row | SMILES | DTNB colorimetric acetyltransferase assay, 412 nm (GlmU) | GlmU-coupled DTNB colorimetric mutase assay, 412 nm (GlmM)
1 | N[C@H]1[C@@H](OP(=O)(O)O)O[C@H](CO)[C@@H](O)[C@@H]1O [GlcN-1-P] | The GlcN-1-P acetyltransferase activities of the GlmU and the GlmUE315AH330A variant were measured | 
2 | N[C@H]1C(O)O[C@H](COP(=O)(O)O)[C@@H](O)[C@@H]1O (some centres unmarked) [GlcN-6-P] |  | The glucosamine-6-phosphate (GlcN-6-P) mutase activity of GlmM was assayed
